Consider six compounds from ChEMBL document CHEMBL5223172, “Development of fluorophore labeled or biotinylated anticancer small molecule NSC243928” (Bioorg Med Chem, 2023).

The source made the active and inactive calls. No cut-off for these calls is given here.

Usually Kd stands for the concentration at which binding is half-saturated.

The target in data set [1] is T1, Lymphocyte antigen 6K (Homo sapiens) (UniProt Q17RY6).
T1 sequence (whole entry): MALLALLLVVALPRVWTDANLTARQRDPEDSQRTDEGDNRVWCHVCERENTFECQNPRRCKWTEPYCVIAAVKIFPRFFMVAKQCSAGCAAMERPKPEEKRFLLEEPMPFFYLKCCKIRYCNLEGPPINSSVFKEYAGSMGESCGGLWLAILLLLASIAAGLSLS
The data set can be described thus: Binding affinity to human wild type LY6K at 1.25 to 5 uM measured upto 250 sec by SPR assay. The conditions noted are these: dose 1.25-5 µM. (In general: In SPR one partner is held on a chip, and binding of the other changes the refractive index at the surface.)

In the next data set the target is T2, Lymphocyte antigen 6K (Homo sapiens, UniProt Q17RY6).
T2 sequence (Q17RY6 whole entry): T1 sequence (whole entry)
Put plainly: Binding affinity to human wild type LY6K assessed as dissociation constant measured upto 250 sec by SPR assay.

Data set [2] addresses T1, Lymphocyte antigen 6K (Homo sapiens). The data set can be described thus: Inhibition of LY6K in human Hs-578T cells assessed as reduction in cell viability measured after 48 hrs by Cell titer blue assay. It counts as cell-based. The conditions noted are these: dose 5-10 µM. In general terms: The colour change of resazurin is a common sign of viable cells or microbes.
The subject of the next data set is Hs-578T. The data set can be described thus: Antiproliferative activity against human Hs-578T cells transfected with LY6K-shRNA assessed as reduction in cell viability at 5 to 10 uM measured after 48 hrs by Cell titer blue assay. The conditions noted are these: dose 5-10 µM. It is filed as functional, cell-based.
The nature of data set [3]: Drug uptake in human Serum starved Hs-578T cells assessed as drug localization in perinuclear region of cell at 2 uM measured after 2 hrs by DAPI staining based confocal microscopy. It counts as ADME.
Data set [4] can be described thus: Drug uptake in human Serum starved Hs-578T cells assessed as drug localization in cytoplasm of cell at 2 uM measured after 2 hrs by DAPI staining based confocal microscopy. It counts as ADME.
A short description of data set [5]: Drug uptake in human Serum starved Hs-578T cells assessed as drug localization in membrane of the cell at 2 uM measured after 2 hrs by DAPI staining based confocal microscopy. It counts as ADME.

As to `CCS(=O)(=O)Nc1ccc(Nc2c3ccccc3nc3ccccc23)c(OC)c1`, the Activity result in data set [1] and in data set [2] was “Dose-Dependent Effect” in each case. In addition, the Kd at Lymphocyte antigen 6K amounted to 4700 nM. Further, in the data set with Hs-578T, the result was inactive.
Turning to `CCS(=O)(=O)Nc1ccc(Nc2c3ccccc3nc3cc(NC(=O)CCCC[C@@H]4SC[C@@H]5NC(=O)N[C@@H]54)ccc23)c(OC)c1`, the result in data set [1] was Active.
As to `CCS(=O)(=O)Nc1ccc(Nc2c3ccccc3nc3cc(C(=O)NCCCCCCNc4ccc([N+](=O)[O-])c5nonc45)ccc23)c(OC)c1`, the outcome in data set [1] was Active. The Drug uptake result in data set [3], in data set [4] and in data set [5] was “Active” in each case. Besides, the Activity result in data set [2] was “Dose-Dependent Effect”. Further, the result with Hs-578T was inactive.
For the compound `CCS(=O)(=O)Nc1ccc(Nc2c3ccccc3nc3cc(C(=O)OCc4ccccc4)ccc23)c(OC)c1`, the result in data set [1] was Active.
As for `CCS(=O)(=O)Nc1ccc(Nc2c3ccccc3nc3cc(C(=O)NCCOCCOCCOCCOCCOCCOCCOCCNC(=O)CCCC[C@@H]4SC[C@@H]5NC(=O)N[C@@H]54)ccc23)c(OC)c1`, the Kd at Lymphocyte antigen 6K amounted to 300 nM. The Activity entry in data set [2] is “Dose-Dependent Effect”. Besides, the outcome in the data set on Hs-578T was inactive.
Regarding `CCS(=O)(=O)Nc1ccc(Nc2c3ccccc3nc3cc([N+](=O)[O-])ccc23)c(OC)c1`, in data set [1], the Activity result is “Dose-Dependent Effect”.
